Reference: patent publication US7338976B1, “Heterocyclic esters or amides for vision and memory disorders” (GPI NIL Holdings, Inc., priority 1998, dated 2008)

Legend:
RT97 + RGC axons = assay: Protection of retinal ganglion cell axons from degeneration following optic nerve transection (Table VIII); format: in vivo; settings: ± SEM
Excerpt: Efficacy of representative compounds from different immunophilin ligand series in protecting retinal ganglion cell axons from degeneration following optic nerve transection is set forth in Table VIII

[1] = test system: retinal ganglion cells and optic nerve axons; assay: Optic nerve transection vision loss model, 14 or 28 day treatment, sacrifice 90 days after transection; format: in vivo, Sprague Dawley rats; settings: 28 days treatment; 90 days after ONT; cross sectional area × myelin density
Excerpt: All eyes and optic nerves stumps were removed.

[2] = test system: retinal ganglion cells, optic nerve axons and myelin; assay: Retinal ischemia (intraocular pressure raised above arterial pressure), examined 28 days later; format: in vivo, adult rats
Excerpt: Retinal ganglion cells were retrogradely labeled in adult rats by bilateral injection of fluorogold in their lateral geniculate nuclei. Labeled ganglion cells in the normal rat retina appear as white profiles against the dark background (FIG. 1A). Complete retinal ischemia was produced by infusing normal saline solution into the retinal vitreous cavity of each eye until the intraocular pressure exceeded arterial blood pressure. 28 days after the ischemic episode extensive degeneration of retinal ganglion cell was evidenced by massive reduction in the density of fluorogold labeled cells (FIG. 1B).
Optic nerves from vehicle treated cases examined 28 days after a 1 hour retinal ischemic episode are characterized by a decreased density of optic nerve axons and the appearance of numerous degenerating myelin figures (bright white filled circles).

[3] = test system: retina (INL, GCL, ONL, OPL, PR); assay: Streptozotocin induced diabetes: retinal neovascularization and neuron loss; format: in vivo; settings: 28 day treatment beginning 8 weeks after onset of streptozotocin diabetes
[4] = test system: retinal ganglion cells and their axons; assay: Example 15: optic nerve transection, 28 days GPI-1046, sacrifice at 90 days; format: in vivo, Sprague Dawley rats; settings: 10 mg/kg/day s.c. for 28 days; 90 days after transection; RT97
Excerpt: Transection of the mammalian optic nerve results in a brief period of abortive regeneration, but the majority of axotomized neurons die and the axons from many persisting ganglion cells die back beyond the optic nerve head.

[5] = Clearance (Table VIII comments); format: in vitro ADME

O=C(SCCCc1ccccc1)[C@@H]1CCCN1C(=O)NC12CC3CC(CC(C3)C1)C2 [B]
RT97 +RGC axon density 14 days after ON transection (% ON axons rescued) (RT97 + RGC axons): 100.0%±5.2% SEM

O=C(SCCCc1ccccc1)[C@@H]1CCCN1S(=O)(=O)Cc1ccccc1 [C]
RT97 +RGC axon density 14 days after ON transection (% ON axons rescued) (RT97 + RGC axons): 60.4%±3.1% SEM

CCC(C)(C)C(=O)C(=O)N1CCC[C@H]1C(=O)OCCCc1cccnc1 [GPI 1046, 3-(3-pyridyl)-1-propyl (2s)-1-(3,3-dimethyl-1,2-dioxopentyl)-2-pyrrolidinecarboxylate]
Distal optic nerve myelin basic protein Density: myelin preservation [1]: ~99 % myelin preservation
protection of retinal ganglion cells after retinal ischemia ([2]; 10 mg/kg s.c. 1 hour prior and 10 mg/kg/day for next four days, 28 days after ischemia, fluorogold labeled cells): noticeable protection of a large proportion of the vulnerable ganglion cell population
protection of optic nerve axons after retinal ischemia ([2]; same cases, toluidine blue staining, 28 days after 1 hour ischemia): protected the majority of optic nerve exons from degeneration
neovascularization in PR, ONL, OPL and INL [3]: reduced neovascularization
RT97 +RGC axon density 14 days after ON transection (% ON axons rescued) (RT97 + RGC axons): 60.5%±3.9 SEM
preservation of axons in the proximal stump [4]: preserved the axons of virtually all protected neurons

CCC(C)(C)C(=O)C(=O)N1CCCC[C@H]1C(=O)O [G]
RT97 +RGC axon density 14 days after ON transection (% ON axons rescued) (RT97 + RGC axons): 34.0%±4.8% SEM

CCC(C)(C)C(=O)C(=O)N1CCCC[C@H]1C(N)=O [H]
RT97 +RGC axon density 14 days after ON transection (% ON axons rescued) (RT97 + RGC axons): 30.3%±8.0% SEM

O=C(OCCCc1cccnc1)[C@@H]1CCCN1C(=S)NC1CCCCC1 [I]
RT97 +RGC axon density 14 days after ON transection (% ON axons rescued) (RT97 + RGC axons): 23.8%±5.3 SEM

CCC(C)(C)C(=O)C(=O)N1CCC[C@H]1C(=O)CCCCc1cccnc1 [J]
RT97 +RGC axon density 14 days after ON transection (% ON axons rescued) (RT97 + RGC axons): 15.8%±4.8% SEM

CCC(C)(C)C(=O)C(=O)N1CCC[C@H]1C(=O)O [L]
RT97 +RGC axon density 14 days after ON transection (% ON axons rescued) (RT97 + RGC axons): 7.8%±3.0% SEM
Clearance [5]: 12.5 µL/min

CCC(C)(C)C(=O)C(=O)N1CCC[C@H]1C(=O)SCCC(c1ccccc1)c1ccccc1 [M]
RT97 +RGC axon density 14 days after ON transection (% ON axons rescued) (RT97 + RGC axons): −6.3%+3.9% SEM
